{"source": "patent US8603493B2", "about": "“Carbosilane dendrimers, preparation method thereof and use of same” (Dendrico, S.L., priority 2005, dated 2013)", "key": {"PBMC": {"system": "PBMC", "experiment": "Transfection test of PBMC (confocal microscopy)", "format": "cell-based, human", "settings": "after 48 hours", "procedure": "After incubations with the mixtures containing fluorescent ODNs, dendriplexes, dendrimers or RPMI, the cells were treated for the subsequent acquisition of images in the conventional confocal or fluorescence microscope. The cells were adhered to glass slides with wells of 30 mm in diameter by Poly-L-lysine, (PLL) (Sigma®). To do this, the slides were preincubated with 30 μl of PLL during 2 hours in an incubator at 37° C. and 5% CO2. After this incubation, the excess PLL was washed with PBS. The cells from each treatment that were going to be adhered in the PLL were washed twice with PBS and were labelled for 1 minute with 0.8% Trypan Blue (Sigma®) to then show the […] cells. They were again washed twice with PBS. At that time the cells were added to the well (100,000/well), being disposed on the PLL during 1 hour in an incubator at 37° C. and 5% CO2. After this hour, the excess volume was washed with PBS and the cells were treated with recently prepared 3% paraformaldehyde (PFA) (within 2 weeks of its use) during 10 minutes. […] Finally, the preparation was mounted using a special medium for fluorescence (DAKO Cytomation Fluorescent Mounting Medium®) with antifading (designed to protect the sample from deterioration caused by lasers). […] After the capture of images, it was analysed using Leica® software. […]"}, "[1]": {"target": "T1, Insulin (recombinant human insulin) (Homo sapiens, UniProt P01308)", "T1 construct": "Despite having its molecular weight (5825 g/mol) and establishing an average of 4 (−) charges; purchased Novo Nordisk Actrapid (trade name; no catalogue number given)", "T1 sequence (P01308 25-54 limits assumed)": "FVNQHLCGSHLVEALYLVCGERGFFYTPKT", "T1 sequence (P01308 90-110 limits assumed)": "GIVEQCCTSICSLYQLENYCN", "experiment": "pH stability test of IM16 dendrimer-insulin complexes", "format": "physicochemical", "settings": "0.5 U insulin; pH 5, 6, 7.4, 9, 10; 15 minutes", "procedure": "The test on the behaviour of the dendrimer-drug complexes previously formed on varying the medium's pH was again performed by evaluating the delay in polyacrylamide gel of the dendrimer bound to the drug with respect to free dendrimer, following a process similar to that used in the tests to determine the dendrimer-drug bond, although introducing a stage of variation of pH in the complex formation process of prior to electrophoresis, process that was performed in the following way: • Complex formation: It was performed in a final mixture volume of 30 μl, which is the maximum volume for loading in the gel. To do this, we started from the necessary quantity of dendrimer which provides a band perfectly identifiable by staining with silver nitrate in the gel once the electrophoresis has been performed: 20 μl of a 100 μM solution, which correspond to 1.2×10^15 molecules. […] An incubation was performed of the dendrimer and drug mixtures at 37° C. during 1 hour to give time for a more thermodynamically stable complex to form, although more time may be needed for its formation. For each pH to test, 2 mixtures were incubated. […]"}, "U87-MG cells": {"system": "U87-MG cells", "experiment": "Toxicity in U-87-MG cells: LDH in the supernatant", "text": "The concentrations and volumes of each one of these compounds were the same used in the test performed with MTT. The commercial kit Cytotoxicity Detection KitPLUS (LDH), from Roche Applied Science was used to determine lactate dehydrogenase, following the manufacturer's instructions."}}}
{"smiles": "C[Si](C)(CCCN)CCC[Si](C)(CCC[Si](C)(C)CCCN)CCC[Si](CCC[Si](C)(CCC[Si](C)(C)CCCN)CCC[Si](C)(C)CCCN)(CCC[Si](C)(CCC[Si](C)(C)CCCN)CCC[Si](C)(C)CCCN)CCC[Si](C)(CCC[Si](C)(C)CCCN)CCC[Si](C)(C)CCCN.Cl.Cl.Cl.Cl.Cl.Cl.Cl.Cl", "note": "[ClNH4, 2G-[Si(CH2)3NH3^+Cl^−]8]", "values": [{"measurement": "fluorescence pattern after transfection with PPT dendriplexes", "setting": "PBMC", "result": "fluorescence pattern in aggregates"}]}
{"smiles": "C[N+](C)(C)CCO[Si](C)(CCC[Si](C)(CCC[Si](CCC[Si](C)(CCC[Si](C)(OCC[N+](C)(C)C)OCC[N+](C)(C)C)CCC[Si](C)(OCC[N+](C)(C)C)OCC[N+](C)(C)C)(CCC[Si](C)(CCC[Si](C)(OCC[N+](C)(C)C)OCC[N+](C)(C)C)CCC[Si](C)(OCC[N+](C)(C)C)OCC[N+](C)(C)C)CCC[Si](C)(CCC[Si](C)(OCC[N+](C)(C)C)OCC[N+](C)(C)C)CCC[Si](C)(OCC[N+](C)(C)C)OCC[N+](C)(C)C)CCC[Si](C)(OCC[N+](C)(C)C)OCC[N+](C)(C)C)OCC[N+](C)(C)C.[I-].[I-].[I-].[I-].[I-].[I-].[I-].[I-].[I-].[I-].[I-].[I-].[I-].[I-].[I-].[I-]", "note": "[IM16, 2G-[Si(OCH2CH2NMe3^+I^−)2]8]", "values": [{"measurement": "pH stability of dendrimer-insulin complex", "setting": "[1]", "result": "dissociated at acid pH"}]}
{"smiles": "CN(CCO[Si](C)(C)CCC[Si](C)(CCC[Si](CCC[Si](C)(CCC[Si](C)(C)OCCN(C)CC[N+](C)(C)C)CCC[Si](C)(C)OCCN(C)CC[N+](C)(C)C)(CCC[Si](C)(CCC[Si](C)(C)OCCN(C)CC[N+](C)(C)C)CCC[Si](C)(C)OCCN(C)CC[N+](C)(C)C)CCC[Si](C)(CCC[Si](C)(C)OCCN(C)CC[N+](C)(C)C)CCC[Si](C)(C)OCCN(C)CC[N+](C)(C)C)CCC[Si](C)(C)OCCN(C)CC[N+](C)(C)C)CC[N+](C)(C)C.[I-].[I-].[I-].[I-].[I-].[I-].[I-].[I-]", "note": "[NN, 2G-[Si(O(CH2)2N(Me)(CH2)2NMe3^+I^−)]8]", "values": [{"measurement": "cytotoxicity (LDH), comparison", "setting": "U87-MG cells", "result": "greater cytotoxicity as their concentration increases"}]}
